Assays:
[1] = test system: BT-474; assay: normalised response (% of control), CellTiter-Glo; higher = more viable cells (100 = DMSO, 0 = benzethonium chloride kill control); settings: incubation time: 72 h
Method in brief: (§1)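 Plates were normalised with 0.1 % DMSO as 100 and a positive kill control as 0. Breast cancer cell lines in 20 µl suspension had been seeded into 384-well plates with compound at 5 concentrations in 10-fold steps over a compound-specific 10,000-fold range, incubated 72 h, and read for CellTox Green fluorescence (485/520 nm) followed by CellTiter-Glo luminescence. Each value is the normalised signal at a single concentration.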

[2] = test system: BT-549; assay: as above; settings: incubation time: 72 h
Method in brief: as §1

[3] = test system: CAL-120; assay: as above; settings: incubation time: 72 h
Method in brief: as §1

[4] = test system: CAL-148; assay: as above; settings: incubation time: 72 h
Method in brief: as §1

[5] = test system: CAL-51; assay: as above; settings: incubation time: 72 h
Method in brief: as §1

[6] = test system: CAL-85-1; assay: as above; settings: incubation time: 72 h
Method in brief: as §1

[7] = test system: DU-4475; assay: as above; settings: incubation time: 72 h
Method in brief: as §1

[8] = test system: HCC1143; assay: as above; settings: incubation time: 72 h
Method in brief: as §1

[9] = test system: HCC1599; assay: as above; settings: incubation time: 72 h
Method in brief: as §1

[10] = test system: HCC1937; assay: as above; settings: incubation time: 72 h
Method in brief: as §1

[11] = test system: HDQ-P1; assay: as above; settings: incubation time: 72 h
Method in brief: as §1

[12] = test system: Hs578T; assay: as above; settings: incubation time: 72 h
Method in brief: as §1

[13] = test system: MCF-10A; assay: as above; settings: incubation time: 72 h
Method in brief: as §1

[14] = test system: MDA-MB-231; assay: as above; settings: incubation time: 72 h
Method in brief: as §1

[15] = test system: MDA-MB-436; assay: as above; settings: incubation time: 72 h
Method in brief: as §1

[16] = test system: MDA-MB-453; assay: as above; settings: incubation time: 72 h
Method in brief: as §1

[17] = test system: MDA-MB-468; assay: as above; settings: incubation time: 72 h
Method in brief: as §1

[18] = test system: MFM-223; assay: as above; settings: incubation time: 72 h
Method in brief: as §1

[19] = test system: SK-BR-3; assay: as above; settings: incubation time: 72 h
Method in brief: as §1

[20] = test system: CAL-51; settings: 72 h
Method in brief: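 Rows with a drug sensitivity score of zero were dropped, and EC50 was taken from the fitted percent-inhibition dose-response curve, censored at the highest concentration. Data were normalised on each plate to vehicle and a positive kill control and checked by Z'-factor. The assay seeded breast cancer cell lines in 20 µl onto 384-well plates pre-loaded with compound in 5 µl medium for 72 h, then added 2.5 µl CellTiter-Blue for 2 h at 37 °C and read fluorescence at 560/590 nm.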

SMILES: Oc1ccc2c(c1)CC[C@H](c1ccccc1)[C@@H]2c1ccc(OCCN2CCCC2)cc1 [Lasofoxifene] (100 nM)
- normalised response [1]: 104%
- normalised response [2]: 95.8%
- normalised response [3]: 107%
- normalised response [4]: 105%
- normalised response [5]: 103%
- normalised response [6]: 97.6%
- normalised response [7]: 95.7%
- normalised response [8]: 106%
- normalised response [9]: 107%
- normalised response [10]: 96%
- normalised response [11]: 99.4%
- normalised response [12]: 106%
- normalised response [13]: 114%
- normalised response [14]: 107%
- normalised response [15]: 107%
- normalised response [16]: 104%
- normalised response [17]: 107%
- normalised response [18]: 105%
- normalised response [19]: 113%

SMILES: Cc1ccc(NC(=O)c2ccc(CN3CCN(C)CC3)cc2)cc1Nc1nc(-c2cccnc2)cs1 [Masitinib] (1000 nM)
- normalised response [1]: 104%
- normalised response [2]: 92.9%
- normalised response [3]: 95.5%
- normalised response [4]: 103%
- normalised response [5]: 80.5%
- normalised response [6]: 111%
- normalised response [7]: 103%
- normalised response [8]: 99%
- normalised response [9]: 106%
- normalised response [10]: 101%
- normalised response [11]: 98.8%
- normalised response [12]: 102%
- normalised response [13]: 105%
- normalised response [14]: 105%
- normalised response [15]: 105%
- normalised response [16]: 89.7%
- normalised response [17]: 89.9%
- normalised response [18]: 103%
- normalised response [19]: 105%

SMILES: O=C(Nc1cccnc1)N1CCC(Cc2cccc(Oc3ccc(C(F)(F)F)cn3)c2)CC1 [PF-3845]
- EC50, CellTiter-Blue viability [20]: 5.96 µM

SMILES: O=C(Nc1cccnc1)N1CCC(Cc2cccc(Oc3ccc(C(F)(F)F)cn3)c2)CC1 [PF-3845] (1000 nM)
- normalised response [1]: 99.2%
- normalised response [2]: 98.3%
- normalised response [3]: 99%
- normalised response [4]: 99.4%
- normalised response [5]: 98.3%
- normalised response [6]: 95%
- normalised response [7]: 98.3%
- normalised response [8]: 106%
- normalised response [9]: 104%
- normalised response [10]: 99%
- normalised response [11]: 98.1%
- normalised response [12]: 104%
- normalised response [13]: 111%
- normalised response [14]: 106%
- normalised response [15]: 104%
- normalised response [16]: 100%
- normalised response [17]: 95.1%
- normalised response [18]: 109%
- normalised response [19]: 101%

SMILES: Cc1[nH]c2ccccc2c1CCNCc1ccc(/C=C/C(=O)NO)cc1 [Panobinostat] (100 nM)
- normalised response [1]: 13.4%
- normalised response [2]: 46.2%
- normalised response [3]: 41.5%
- normalised response [4]: 3.76%
- normalised response [5]: 24.6%
- normalised response [6]: 25.9%
- normalised response [7]: 4.91%
- normalised response [8]: 26.3%
- normalised response [9]: 24.2%
- normalised response [10]: 63.1%
- normalised response [11]: 62.3%
- normalised response [12]: 27.4%
- normalised response [13]: 49.1%
- normalised response [14]: 10.2%
- normalised response [15]: 55%
- normalised response [16]: 3.15%
- normalised response [17]: 28.2%
- normalised response [18]: 35.2%
- normalised response [19]: 1.76%

SMILES: COCC1(CO)C(=O)C2CCN1CC2 (stereo unspecified) [Prima-1 Met] (1000 nM)
- normalised response [1]: 102%
- normalised response [2]: 96.8%
- normalised response [3]: 99.3%
- normalised response [4]: 101%
- normalised response [5]: 108%
- normalised response [6]: 105%
- normalised response [7]: 105%
- normalised response [8]: 105%
- normalised response [9]: 106%
- normalised response [10]: 92.2%
- normalised response [11]: 96.3%
- normalised response [12]: 101%
- normalised response [13]: 97.8%
- normalised response [14]: 104%
- normalised response [15]: 106%
- normalised response [16]: 109%
- normalised response [17]: 105%
- normalised response [18]: 103%
- normalised response [19]: 101%

SMILES: CNC(=O)c1cc(Oc2ccc(NC(=O)Nc3ccc(Cl)c(C(F)(F)F)c3)c(F)c2)ccn1 [Regorafenib] (1000 nM)
- normalised response [1]: 91.8%
- normalised response [2]: 105%
- normalised response [3]: 94.9%
- normalised response [4]: 99.1%
- normalised response [5]: 65.6%
- normalised response [6]: 109%
- normalised response [7]: 97.3%
- normalised response [8]: 93.5%
- normalised response [9]: 102%
- normalised response [10]: 103%
- normalised response [11]: 90.9%
- normalised response [12]: 93.9%
- normalised response [13]: 90.6%
- normalised response [14]: 99%
- normalised response [15]: 101%
- normalised response [16]: 97.2%
- normalised response [17]: 105%
- normalised response [18]: 73.4%
- normalised response [19]: 102%

SMILES: c1ccc2c(CCNc3ccc(Nc4ccncc4)cc3)c[nH]c2c1 [Serdemetan] (1000 nM)
- normalised response [1]: 76.4%
- normalised response [2]: 84.2%
- normalised response [3]: 93.7%
- normalised response [4]: 71.1%
- normalised response [5]: 24.4%
- normalised response [6]: 125%
- normalised response [7]: 90.3%
- normalised response [8]: 83.8%
- normalised response [9]: 114%
- normalised response [10]: 88.5%
- normalised response [11]: 90%
- normalised response [12]: 104%
- normalised response [13]: 86.2%
- normalised response [14]: 82.4%
- normalised response [15]: 89.5%
- normalised response [16]: 110%
- normalised response [17]: 77.8%
- normalised response [18]: 97%
- normalised response [19]: 79.6%

SMILES: CN(C)CCOc1ccc(/C(=C(/CCCl)c2ccccc2)c2ccccc2)cc1 [Toremifene] (1000 nM)
- normalised response [1]: 98.7%
- normalised response [2]: 104%
- normalised response [3]: 98.5%
- normalised response [4]: 99.2%
- normalised response [5]: 108%
- normalised response [6]: 99.2%
- normalised response [7]: 98.3%
- normalised response [8]: 96.3%
- normalised response [9]: 102%
- normalised response [10]: 96.7%
- normalised response [11]: 96.6%
- normalised response [12]: 107%
- normalised response [13]: 92.3%
- normalised response [14]: 92.6%
- normalised response [15]: 104%
- normalised response [16]: 106%
- normalised response [17]: 97.6%
- normalised response [18]: 101%
- normalised response [19]: 106%

SMILES: CC(C)C[C@@H](C(=O)N[C@H](C(=O)OC1CCCC1)c1ccccc1)[C@H](O)C(=O)NO [Tosedostat] (1000 nM)
- normalised response [1]: 40.6%
- normalised response [2]: 55.9%
- normalised response [3]: 43.4%
- normalised response [4]: 72.9%
- normalised response [5]: 91%
- normalised response [6]: 48.2%
- normalised response [7]: 88.4%
- normalised response [8]: 69%
- normalised response [9]: 96.6%
- normalised response [10]: 67.4%
- normalised response [11]: 74.1%
- normalised response [12]: 84.6%
- normalised response [13]: 87.3%
- normalised response [14]: 59.7%
- normalised response [15]: 73.6%
- normalised response [16]: 48.7%
- normalised response [17]: 28.7%
- normalised response [18]: 70.5%
- normalised response [19]: 76.2%

SMILES: COCC[n+]1c2c(n(Cc3cnccn3)c1C)C(=O)c1ccccc1C2=O [YM155] (1000 nM)
- normalised response [1]: 0.29%
- normalised response [2]: -0.05%
- normalised response [3]: 3.05%
- normalised response [4]: -0.23%
- normalised response [5]: -0.05%
- normalised response [6]: -0.48%
- normalised response [7]: 1.45%
- normalised response [8]: 0.6%
- normalised response [9]: -0.01%
- normalised response [10]: 0.41%
- normalised response [11]: -0.17%
- normalised response [12]: 25.6%
- normalised response [13]: -0.7%
- normalised response [14]: -0.22%
- normalised response [15]: -0.32%
- normalised response [16]: 9.91%
- normalised response [17]: -0.57%
- normalised response [18]: 10.7%
- normalised response [19]: -0.16%

— the supplement of paper PMC4862054
